In patent publication US11046697B2, “Compounds and compositions useful for treating disorders related to NTRK” (BLUEPRINT MEDICINES CORPORATION, priority 2015, dated 2021) one finds IC50 and GI50 data, which are given here for 24 molecules.

One assay addresses T1, wild type NTRK1 enzyme (Homo sapiens, UniProt P04629).
T1 construct: purchased BPS Bioscience 40280
As to the kind of experiment: NTRK1 Wild Type Assay at 1 mM ATP. It is filed as biochemical. As for the experimental part: NTRK1 Wild Type Assay at 1 mM ATP
The reaction was stopped by the addition of 70 μL of Stop buffer (100 mM HEPES pH 7.5, 0.015% Brij 35, 35 mM EDTA and 0.2% of Coating Reagent 3 (Caliper Lifesciences)). The plate was then read on a Caliper EZReader 2 (protocol settings: −1.7 psi, upstream voltage −500, downstream voltage −3000, post sample sip 35s).

Assay [1] concerns KM12 Cliff (G595R) cell line. As to the kind of experiment: NTRK G595R mutant cellular assay (CellTiter-Glo growth inhibition). It is filed as cell-based. Particulars: for IC50: 72 hr, CellTiter-Glo. An outline of the steps:
(§1)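 KM12 (TPM3-NTRK1 fusion) or KM12 Cliff (G595R) cells at 1000 cells/well in 10% FBS media were dosed with compounds at varying concentrations in duplicate after overnight plating.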
(ATP-based viability assays read luminescence as a measure of living cells.)

Assay [2] has as its system KM12 wild type colon carcinoma cell line harboring the TPM3-NTRK1 fusion protein. As to the kind of experiment: NTRK wild type cellular assay (CellTiter-Glo growth inhibition). Format: cell-based. The conditions noted are these: for IC50: 72 hr, CellTiter-Glo, read-out: KM12 (WT) IC50. The method, boiled down:
as §1

Setting [3] is: 1 mM ATP, read-out: Enz NTRK1 IC50.

One may read the IC50 as the point on the concentration scale where inhibition reaches its midpoint. In general, GI50 refers to the concentration that inhibits growth by half.

Where two headings read alike, the source gives them in different places.

T1 sequence (P04629 440-796 limits assumed): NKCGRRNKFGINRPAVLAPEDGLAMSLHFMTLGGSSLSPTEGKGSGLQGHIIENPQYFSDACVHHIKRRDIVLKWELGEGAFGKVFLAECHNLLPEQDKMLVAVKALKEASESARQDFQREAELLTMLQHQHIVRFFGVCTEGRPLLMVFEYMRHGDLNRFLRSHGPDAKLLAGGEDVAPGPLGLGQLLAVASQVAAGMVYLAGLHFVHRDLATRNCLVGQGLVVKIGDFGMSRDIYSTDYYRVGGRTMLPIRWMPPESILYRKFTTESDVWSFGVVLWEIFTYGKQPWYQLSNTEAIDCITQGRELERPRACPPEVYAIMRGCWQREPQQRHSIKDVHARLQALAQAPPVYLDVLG

As for `O=C(c1n[nH]c2ncnc(N[C@@H]3CCC[C@@H](O)[C@H]3O)c12)N1C[C@@H](F)C[C@@H]1c1cc(Cl)ccc1F` [Compound 221], the 50% inhibitory concentration (IC50) at wild type NTRK1 enzyme (setting [3]) is under 10 nM; in assay [1] (Homo sapiens, KM12, 72 h) it was under 10 nM; in assay [2] (Homo sapiens, KM12, 72 h) it was under 10 nM.

For the molecule `O=C(c1n[nH]c2ncnc(N[C@@H]3COC[C@@H](O)[C@H]3O)c12)N1C[C@@H](F)C[C@@H]1c1cc(F)ccc1Cl` [Compound 222], the half-inhibitory concentration (IC50) on wild type NTRK1 enzyme (setting [3]) is under 10 nM; in assay [1] (Homo sapiens, KM12, 72 h), 10 to 100 nM; in assay [2] (Homo sapiens, KM12, 72 h), 10 to 100 nM.

On to `O=C(c1n[nH]c2ncnc(NC3COCC(O)C3O)c12)N1CC(F)CC1c1cc(F)cc(Cl)c1` (stereo not drawn) [Compound 223], for which the IC50 at wild type NTRK1 enzyme (setting [3]) is under 10 nM; in assay [1], 10 to 100 nM; in assay [2] it was 10 to 100 nM.

Turning to `O=C(c1n[nH]c2ncnc(N[C@@H]3CCC[C@@H](O)[C@H]3O)c12)N1C[C@@H](F)C[C@@H]1c1cc(F)cc(F)c1F` [Compound 224], the half-maximal inhibitory concentration (IC50) at wild type NTRK1 enzyme (setting [3]) was under 10 nM; in assay [1] (Homo sapiens, KM12, 72 h) it was under 10 nM; in assay [2] (Homo sapiens, KM12, 72 h), under 10 nM.

In the case of `O=C(c1n[nH]c2ncnc(NC3CCCC(F)(F)[C@H]3O)c12)N1C[C@@H](F)C[C@@H]1c1cc(F)ccc1F` (stereo partly drawn) [Compound 225], the results for the IC50 (at wild type NTRK1 enzyme (setting [3]); in assay [1]; in assay [2]) were under 10 nM, 10 to 100 nM and 10 to 100 nM, respectively.

With `O=C(c1n[nH]c2ncnc(N[C@@H]3C[C@@H](C(F)F)C[C@H]3O)c12)N1C[C@@H](F)C[C@@H]1c1cc(F)ccc1F` [Compound 226, (4-(((1R,2R,4R)-4-(difluoromethyl)-2-hydroxycyclopentyl)amino)-1H-pyrazolo[3,4-d]pyrimidin-3-yl)((2R,4S)-2-(2,5-difluorophenyl)-4-fluoropyrrolidin-1-yl)methanone], the IC50 was under 10 nM at wild type NTRK1 enzyme (setting [3]); under 10 nM in assay [1] (Homo sapiens, KM12, 72 h); under 10 nM in assay [2] (Homo sapiens, KM12, 72 h).

`O=C(c1n[nH]c2ncnc(N[C@@H]3CC(F)(F)[C@@H](O)[C@H]3O)c12)N1C[C@@H](F)C[C@@H]1c1cc(F)ccc1F` [Compound 227]: the IC50 (on wild type NTRK1 enzyme (setting [3]); in assay [1]; in assay [2]) was under 10 nM throughout.

Turning to `CN(Cc1cc(F)ccc1OC(F)(F)F)C(=O)c1n[nH]c2ncnc(NC3COCC(O)C3O)c12` (stereo not drawn) [Compound 228], the IC50 (on wild type NTRK1 enzyme (setting [3]); in assay [1]; in assay [2]) was 10 to 100 nM in each case.

On to `O=C(c1n[nH]c2ncnc(N[C@@H]3CN(C4COC4)C[C@H]3O)c12)N1C[C@@H](F)C[C@@H]1c1cc(F)ccc1F` [Compound 229, ((2R,4S)-2-(2,5-difluorophenyl)-4-fluoropyrrolidin-1-yl)(4-(((3R,4R)-4-hydroxy-1-(oxetan-3-yl)pyrrolidin-3-yl)amino)-1H-pyrazolo[3,4-d]pyrimidin-3-yl)methanone], for which the IC50 at wild type NTRK1 enzyme (setting [3]) is under 10 nM; in assay [1] (Homo sapiens, KM12, 72 h), under 10 nM; in assay [2] (Homo sapiens, KM12, 72 h), under 10 nM.

In the case of `N#Cc1cc(F)cc([C@H]2C[C@H](F)CN2C(=O)c2n[nH]c3ncnc(N[C@@H]4CCCC(F)(F)[C@H]4O)c23)c1` [Compound 230], the IC50 is under 10 nM at wild type NTRK1 enzyme (setting [3]); 10 to 100 nM in assay [1] (Homo sapiens, KM12, 72 h); 10 to 100 nM in assay [2] (Homo sapiens, KM12, 72 h).

For `O=C(c1n[nH]c2ncnc(N[C@@H]3CCCC(F)(F)[C@H]3O)c12)N1C[C@@H](F)C[C@@H]1c1cncc(F)c1` [Compound 231], the half-maximal inhibitory concentration (IC50) lay within 10 to 100 nM on wild type NTRK1 enzyme (setting [3]); 100 to 1000 nM in assay [1] (Homo sapiens, KM12, 72 h); 10 to 100 nM in assay [2] (Homo sapiens, KM12, 72 h).

Regarding `CC(C)(O)[C@H]1C[C@@H](O)[C@H](Nc2ncnc3[nH]nc(C(=O)N4C[C@@H](F)C[C@@H]4c4cc(F)ccc4F)c23)C1` [Compound 232, ((2R,4S)-2-(2,5-difluorophenyl)-4-fluoropyrrolidin-1-yl)(4-(((1R,2R,4R)-2-hydroxy-4-(2-hydroxypropan-2-yl)cyclopentyl)amino)-1H-pyrazolo[3,4-d]pyrimidin-3-yl)methanone], the half-inhibitory concentration (IC50) on wild type NTRK1 enzyme (setting [3]) is under 10 nM; in assay [1] (Homo sapiens, KM12, 72 h) it was under 10 nM; in assay [2] (Homo sapiens, KM12, 72 h), under 10 nM.

For `COc1c(F)cc(F)cc1[C@H]1C[C@H](F)CN1C(=O)c1n[nH]c2ncnc(N[C@H]3[C@H](O)[C@H](O)[C@@H]4C[C@@H]43)c12` [Compound 233], the IC50 (on wild type NTRK1 enzyme (setting [3]); in assay [1]; in assay [2]) was under 10 nM each time.

With `COc1c(F)cc(F)cc1C1CC(F)CN1C(=O)c1n[nH]c2ncnc(NC3CCCC(O)C3O)c12` (stereo not drawn) [Compound 234], the 50% inhibitory concentration (IC50) (at wild type NTRK1 enzyme (setting [3]); in assay [1]; in assay [2]) was under 10 nM in each case.

For `O=C(c1n[nH]c2ncnc(N[C@@H]3C=C[C@@H](O)[C@H]3O)c12)N1C[C@@H](F)C[C@@H]1c1cc(F)ccc1OC(F)F` [Compound 235], the IC50 at wild type NTRK1 enzyme (setting [3]) was under 10 nM; in assay [1], 10 to 100 nM; in assay [2], 10 to 100 nM.

On to `COc1c(F)cc(F)cc1[C@H]1C[C@H](F)CN1C(=O)c1n[nH]c2ncnc(N[C@@H]3COC[C@@H](O)[C@H]3O)c12` [Compound 236], for which the IC50 was under 10 nM at wild type NTRK1 enzyme (setting [3]); 10 to 100 nM in assay [1] (Homo sapiens, KM12, 72 h); under 10 nM in assay [2] (Homo sapiens, KM12, 72 h).

In the case of `O=C(c1n[nH]c2ncnc(N[C@@H]3CC[C@@H](O)[C@H]3O)c12)N1C[C@@H](F)C[C@@H]1c1cc(F)ccc1OC(F)F` [Compound 237], the IC50 on wild type NTRK1 enzyme (setting [3]) was under 10 nM; in assay [1] (Homo sapiens, KM12, 72 h), 10 to 100 nM; in assay [2] (Homo sapiens, KM12, 72 h), 10 to 100 nM.

As for `O=C(c1n[nH]c2ncnc(N[C@H]3[C@H](O)[C@H](O)[C@@H]4C[C@@H]43)c12)N1C[C@@H](F)C[C@@H]1c1cc(F)ccc1OC(F)F` [Compound 239], the IC50 on wild type NTRK1 enzyme (setting [3]) was under 10 nM; in assay [1], 10 to 100 nM; in assay [2] it was under 10 nM.

Turning to `O=C(c1n[nH]c2ncnc(N[C@@H]3CC[C@@H](O)[C@H]3O)c12)N1C[C@@H](F)C[C@@H]1c1cc(F)ccc1OC(F)(F)F` [Compound 240], the IC50 was under 10 nM at wild type NTRK1 enzyme (setting [3]); under 10 nM in assay [1] (Homo sapiens, KM12, 72 h); under 10 nM in assay [2] (Homo sapiens, KM12, 72 h).

Regarding `O=C(c1n[nH]c2ncnc(NC3CCOCC3O)c12)N1CC(F)CC1c1cc(F)ccc1OC(F)(F)F` (stereo not drawn) [Compound 241], the IC50 (on wild type NTRK1 enzyme (setting [3]); in assay [1]; in assay [2]) was under 10 nM in each case.

`O=C(c1n[nH]c2ncnc(N[C@H]3[C@H](O)[C@H](O)[C@@H]4C[C@@H]43)c12)N1C[C@@H](F)C[C@@H]1c1cc(F)ccc1OC(F)(F)F` [Compound 242]: the IC50 (at wild type NTRK1 enzyme (setting [3]); in assay [1]; in assay [2]) was under 10 nM throughout.

As for `O=C(c1n[nH]c2ncnc(NC3CCCC(O)C3O)c12)N1CC(F)CC1c1cc(F)ccc1OC(F)(F)F` (stereo not drawn) [Compound 243], the half-maximal inhibitory concentration (IC50) (at wild type NTRK1 enzyme (setting [3]); in assay [1]; in assay [2]) was under 10 nM throughout.

As for `O=C(c1n[nH]c2ncnc(N[C@@H]3COC[C@@H](O)[C@H]3O)c12)N1C[C@@H](F)C[C@@H]1c1cc(F)ccc1OC(F)(F)F` [Compound 244], the IC50 on wild type NTRK1 enzyme (setting [3]) is under 10 nM; in assay [1] (Homo sapiens, KM12, 72 h) it was under 10 nM; in assay [2] (Homo sapiens, KM12, 72 h), under 10 nM.

Regarding `CC(C)NC(=O)C1CCC(n2c(NC(=O)c3ccc(F)cc3)nc3ccc(CN4CCC(C(C)(C)O)CC4)cc32)CC1` (stereo not drawn) [TSR-011], the IC50 on wild type NTRK1 enzyme (wild-type NTRK enzyme, read-out: NTRK wt Enzyme Assay IC50) was found to be 2.3 nM. The GI50 in assay [1] (G595R mutant NTRK fusion cells) turned out to be 12000 nM; in assay [2] (wild-type NTRK fusion cells, read-out: NTRK wt Cellular GI50), 32 nM.
